Assays:
Assay type in all cases: in vivo
[1] = tested on: Bermudagrass v. Tifway 419; assay: Phytotoxicity via granule application (Table B3.2)
Protocol: (§1) The phytotoxicity of the compound of formula I to turfgrass species was tested. The compound was applied by distribution of granule formulations of formula I, post emergence, to turfgrass species at two rates. All treatments were watered-in 1 day after application. Percentage phytotoxicity assessments were taken at various timepoints.
Two granule formulations were made and tested. Granule A is an inert granule formulation, comprising 99.06 wt % DG Lite 150 granules, 0.14 wt % compound of formula I, 0.50 wt % Sunspray 6N, and 0.30 wt % HiSil 233. The compound of formula I was added to the DG Lite granules while blending in a Continental Rollo-mixer.
Sunspray 6N oil was then sprayed onto the granules, and HiSil added to dry excess liquid and improve granule flowability. The granules were blended in the mixer for 20-30 minutes until homogeneous, and passed through a −12/+60 mesh to remove over and under sized particles.
Granule B is a fertiliser granule formulation, comprising 54.65 wt % urea, 6.63 wt % triple super phosphate, 4.95 wt % potassion chloride, 9.91 wt % huber clay, 7.22 wt % HiSil 233, 0.16 wt % compound of formula I, […] agnique ME 181, 2.07 wt % stepfac 8180, and 11.98 wt % water. […] The remaining HiSil was added and granules dried at 40-60° C., to remove excess liquid. Finally, the granules were passed through a −12/+60 mesh to remove over and under sized particles.

[2] = tested on: Bermudagrass v. Tifway 419; assay: Phytotoxicity in combination with safeners, post emergence spray (Table B4.3); details: no safener, 100 g ai/ha
Protocol: (§2) The phytotoxicity to turfgrass of the compound of formula I in combination with various safeners was tested. The combinations were applied by post emergence spray application. Percentage phytotoxicity assessments were taken at various timepoints. The safeners tested in these trials were cloquintocet-mexyl, cyprosulfamide, a compound of formula 2.3, and isoxadifen-ethyl.

Tall fescue v. Coronado [3] = assay: Phytotoxicity via granule application, various inert granules (Table B3.3); details: 8 DAT
Protocol: as §1
In Tables B3.3 and B3.4, the granular formulations tested were made by spraying the compound of formula I onto various inert granules. In each of these trials, the granule formulations were tested at a higher rate than the corresponding spray application

Bluegrass/fescue mix = assay: Phytotoxicity via post emergence spray application (Table B2.7); details: 1 appl
Protocol: (§3) The phytotoxicity of the compound of formula I to turfgrass species was tested. The compound was applied via post emergence spray to a range of warm and cool season turfgrass species at various rates and spray treatment treatment regimes. Percentage phytotoxicity assessments were taken at various timepoints.

Zoysiagrass v. Meyer = assay: Phytotoxicity via post emergence spray application (Table B2.2)
Protocol: as §3

Tall fescue v. Coronado [4] = assay: Phytotoxicity of granule formulations with safeners (Table B4.4); details: 8 DAT
Protocol: as §2
Tables B4.4 and B4.5 present the results of trials using safeners applied in combination with granule formulations of the compound of formula I.

[5] = tested on: clover and dandelion in turfgrass varieties; assay: Example B1, conclusion in words; details: in Kentucky bluegrass, tall fescue and perennial ryegrass at the tested application rates
Protocol: The selectivity of the compound of formula I in turf (removal of grassy and broadleaf weeds) has been tested in turfgrass varieties selected from Kentucky bluegrass, tall fescue and perennial ryegrass and in […] selected from clover (an aggressive perennial weed) and dandelion (a weed of perennial horticultural crops and gardens which may also be a problem in some annual crops, particularly where reduced tillage is practiced).
The trials were conducted in Champaign, Ill., U.S. (Table B1.1) and Hudson, N.Y., U.S. (Table B1.2) under field conditions. Turfgrasses were maintained at approximately a 2.5″ height, like a home lawn. Mixed turf and weed stands were present. The test compounds were applied with a CO2 pressurized backpack sprayer by spraying in the form of an aqueous suspension (prepared from a wettable powder) in a concentration of 210 to 280 g/ha. The plots were then mowed and irrigated as needed. After 22 and 28 days respectively, the test is visually evaluated (100%=total damage to plant; 0%=no damage to plant).

## COCCOCc1nc(C(F)(F)F)ccc1C(=O)C1=C(O)C2CCC(C2)C1=O (stereo not shown) [Formula I, 4-Hydroxy-3-[2-(2-methoxyethoxymethyl)-6-trifluoromethylpyridine-3-carbonyl]-bicyclo[3.2.1]oct-3-en-2-one]
[1]; Granule A (inert), 112 g ai/ha, 7 DAT
  % phytotoxicity: 6.00%
[1]; Granule A (inert), 112 g ai/ha, 11 DAT
  % phytotoxicity: 0.00%
[1]; Granule A (inert), 280 g ai/ha, 7 DAT
  % phytotoxicity: 23.30%
[1]; Granule A (inert), 280 g ai/ha, 11 DAT
  % phytotoxicity: 8.30%
[1]; Granule A (inert), 280 g ai/ha, 15 DAT
  % phytotoxicity: 2.30%
[1]; Granule A (inert), 280 g ai/ha, 20 DAT
  % phytotoxicity: 0.00%
[1]; Granule B (fertiliser), 112 g ai/ha, 7 DAT
  % phytotoxicity: 16.70%
[1]; Granule B (fertiliser), 280 g ai/ha, 7 DAT
  % phytotoxicity: 33.30%
[2]; 7 DAT
  % phytotoxicity: 56.70%
[2]; 11 DAT
  % phytotoxicity: 38.30%
[2]; 18 DAT
  % phytotoxicity: 9.30%
Tall fescue v. Coronado [3]; Agsorb LUM GA granule, 680 g ai/ha
  % phytotoxicity: 23.8%
Tall fescue v. Coronado [3]; Agsorb LUM MS granule, 680 g ai/ha
  % phytotoxicity: 9.3%
Tall fescue v. Coronado [3]; Agsorb RUM GA granule, 680 g ai/ha
  % phytotoxicity: 18.8%
Tall fescue v. Coronado [3]; Bio Dac granule, 680 g ai/ha
  % phytotoxicity: 13.8%
Tall fescue v. Coronado [3]; DG Lite granule, 680 g ai/ha
  % phytotoxicity: 20.0%
Tall fescue v. Coronado [3]; Eco Gran granule, 680 g ai/ha
  % phytotoxicity: 20.0%
Tall fescue v. Coronado [3]; Non dispersing extruded granules, 680 g ai/ha
  % phytotoxicity: 21.3%
Tall fescue v. Coronado [3]; Oil dry granule, 680 g ai/ha
  % phytotoxicity: 12.5%
Tall fescue v. Coronado [3]; Spray, 340 g ai/ha
  % phytotoxicity: 18.8%
Bluegrass/fescue mix; 10 g ai/ha, 7 DAT
  % phytotoxicity: 0.00%
Bluegrass/fescue mix; 10 g ai/ha, 14 DAT
  % phytotoxicity: 0.00%
Bluegrass/fescue mix; 10 g ai/ha, 22 DAT
  % phytotoxicity: 0.00%
Bluegrass/fescue mix; 10 g ai/ha, 29 DAT
  % phytotoxicity: 0.00%
Bluegrass/fescue mix; 10 g ai/ha, 46 DAT
  % phytotoxicity: 0.00%
Bluegrass/fescue mix; 20 g ai/ha, 7 DAT
  % phytotoxicity: 0.00%
Bluegrass/fescue mix; 20 g ai/ha, 14 DAT
  % phytotoxicity: 0.00%
Bluegrass/fescue mix; 20 g ai/ha, 22 DAT
  % phytotoxicity: 0.00%
Bluegrass/fescue mix; 20 g ai/ha, 29 DAT
  % phytotoxicity: 0.00%
Bluegrass/fescue mix; 20 g ai/ha, 46 DAT
  % phytotoxicity: 0.00%
Bluegrass/fescue mix; 40 g ai/ha, 7 DAT
  % phytotoxicity: 0.00%
Bluegrass/fescue mix; 40 g ai/ha, 14 DAT
  % phytotoxicity: 0.00%
Bluegrass/fescue mix; 40 g ai/ha, 22 DAT
  % phytotoxicity: 0.00%
Bluegrass/fescue mix; 40 g ai/ha, 29 DAT
  % phytotoxicity: 0.00%
Bluegrass/fescue mix; 40 g ai/ha, 46 DAT
  % phytotoxicity: 0.00%
Bluegrass/fescue mix; 80 g ai/ha, 7 DAT
  % phytotoxicity: 0.00%
Bluegrass/fescue mix; 80 g ai/ha, 14 DAT
  % phytotoxicity: 0.00%
Bluegrass/fescue mix; 80 g ai/ha, 22 DAT
  % phytotoxicity: 0.00%
Bluegrass/fescue mix; 80 g ai/ha, 29 DAT
  % phytotoxicity: 0.00%
Bluegrass/fescue mix; 80 g ai/ha, 46 DAT
  % phytotoxicity: 0.00%
Bluegrass/fescue mix; 160 g ai/ha, 7 DAT
  % phytotoxicity: 0.00%
Bluegrass/fescue mix; 160 g ai/ha, 14 DAT
  % phytotoxicity: 2.50%
Bluegrass/fescue mix; 160 g ai/ha, 22 DAT
  % phytotoxicity: 0.00%
Bluegrass/fescue mix; 160 g ai/ha, 29 DAT
  % phytotoxicity: 0.00%
Bluegrass/fescue mix; 160 g ai/ha, 46 DAT
  % phytotoxicity: 0.00%
Zoysiagrass v. Meyer; 1 appl, 140 g ai/ha, 8 DAT
  % phytotoxicity: 42.50%
Zoysiagrass v. Meyer; 1 appl, 140 g ai/ha, 14 DAT
  % phytotoxicity: 51.25%
Zoysiagrass v. Meyer; 1 appl, 140 g ai/ha, 29 DAT
  % phytotoxicity: 41.25%
Zoysiagrass v. Meyer; 1 appl, 140 g ai/ha, 35 DAT
  % phytotoxicity: 25.00%
Zoysiagrass v. Meyer; 1 appl, 140 g ai/ha, 43 DAT
  % phytotoxicity: 7.50%
Zoysiagrass v. Meyer; 1 appl, 140 g ai/ha, 51 DAT
  % phytotoxicity: 5.00%
Zoysiagrass v. Meyer; 1 appl, 140 g ai/ha, 60 DAT
  % phytotoxicity: 0.00%
Zoysiagrass v. Meyer; 1 appl, 280 g ai/ha, 8 DAT
  % phytotoxicity: 45.00%
Zoysiagrass v. Meyer; 1 appl, 280 g ai/ha, 14 DAT
  % phytotoxicity: 57.50%
Zoysiagrass v. Meyer; 1 appl, 280 g ai/ha, 29 DAT
  % phytotoxicity: 61.25%
Zoysiagrass v. Meyer; 1 appl, 280 g ai/ha, 35 DAT
  % phytotoxicity: 28.75%
Zoysiagrass v. Meyer; 1 appl, 280 g ai/ha, 43 DAT
  % phytotoxicity: 8.75%
Zoysiagrass v. Meyer; 1 appl, 280 g ai/ha, 51 DAT
  % phytotoxicity: 3.75%
Zoysiagrass v. Meyer; 1 appl, 280 g ai/ha, 60 DAT
  % phytotoxicity: 0.00%
Zoysiagrass v. Meyer; 2 appl, 140 g ai/ha, 8 DAT
  % phytotoxicity: 33.75%
Zoysiagrass v. Meyer; 2 appl, 140 g ai/ha, 14 DAT
  % phytotoxicity: 47.50%
Zoysiagrass v. Meyer; 2 appl, 140 g ai/ha, 29 DAT
  % phytotoxicity: 17.50%
Zoysiagrass v. Meyer; 2 appl, 140 g ai/ha, 35 DAT
  % phytotoxicity: 43.75%
Zoysiagrass v. Meyer; 2 appl, 140 g ai/ha, 43 DAT
  % phytotoxicity: 27.50%
Zoysiagrass v. Meyer; 2 appl, 140 g ai/ha, 51 DAT
  % phytotoxicity: 8.75%
Zoysiagrass v. Meyer; 2 appl, 140 g ai/ha, 60 DAT
  % phytotoxicity: 0.00%
Zoysiagrass v. Meyer; 2 appl, 280 g ai/ha, 8 DAT
  % phytotoxicity: 38.75%
Zoysiagrass v. Meyer; 2 appl, 280 g ai/ha, 14 DAT
  % phytotoxicity: 57.50%
Zoysiagrass v. Meyer; 2 appl, 280 g ai/ha, 29 DAT
  % phytotoxicity: 52.50%
Zoysiagrass v. Meyer; 2 appl, 280 g ai/ha, 35 DAT
  % phytotoxicity: 47.50%
Zoysiagrass v. Meyer; 2 appl, 280 g ai/ha, 43 DAT
  % phytotoxicity: 28.75%
Zoysiagrass v. Meyer; 2 appl, 280 g ai/ha, 51 DAT
  % phytotoxicity: 12.50%
Zoysiagrass v. Meyer; 2 appl, 280 g ai/ha, 60 DAT
  % phytotoxicity: 0.00%
Tall fescue v. Coronado [4]; DG Lite granule, no safener, 680 g ai/ha
  % phytotoxicity: 20.0%
Tall fescue v. Coronado [4]; DG Lite granule, safener Cyprosulfamide (0.07%), 680 g ai/ha
  % phytotoxicity: 22.5%
Tall fescue v. Coronado [4]; DG Lite granule, safener Formula 2.3 (0.07%), 680 g ai/ha
  % phytotoxicity: 16.3%
Tall fescue v. Coronado [4]; DG Lite granule, safener Isoxadifen (0.07%), 680 g ai/ha
  % phytotoxicity: 21.3%
Tall fescue v. Coronado [4]; Spray, no safener, 340 g ai/ha
  % phytotoxicity: 18.8%
[5]
  selective weed control in turfgrass, in words: suitable to combat undesired broadleaf weeds like clover and dandelion in turfgrass varieties
